Laboratory results from PMC10572602, “Molecular Mechanism of STIL Coiled-Coil Domain Oligomerization” (International Journal of Molecular Sciences, 2023).
Like-named read-outs stand apart in the source and are kept apart here. No end group written: not given here.

B1: STIL CCD_(718–749) A722L (peptide)
peptide: LSPDLYRFLTEQDRQLRLLQAQIQRLLEAQSL-NH2
notes: STIL coiled-coil domain, residues 718-749, with A722L; source: synthetic peptide (Fmoc-SPPS on rink amide, RP-HPLC purified)
B2: STIL CCD_(718–749) Q729L (peptide)
peptide: LSPDAYRFLTELDRQLRLLQAQIQRLLEAQSL-NH2
notes: STIL coiled-coil domain, residues 718-749, with Q729L; also called STIL CCD Q729L; source: synthetic peptide (Fmoc-SPPS on rink amide, RP-HPLC purified)
B3: STIL CCD_(718–749) A722L Q729L (peptide)
peptide: LSPDLYRFLTELDRQLRLLQAQIQRLLEAQSL-NH2
notes: STIL coiled-coil domain, residues 718-749, with A722L and Q729L; also called double mutant; source: synthetic peptide (Fmoc-SPPS on rink amide, RP-HPLC purified)

Experiments:
STIL CCD peptide [1] = assay: AUC sedimentation velocity (SV), oligomeric state; assay type: physicochemical; conditions: for oligomeric state (average number of monomers in the oligomer): continuous c(s), 25 mM sodium phosphate pH 6.8, NaCl
Description: Previously, we and others have shown by size-exclusion chromatography and multi-angle light scattering that the oligomerization of a STIL CCD peptide is concentration dependent. However, these studies were qualitative and the interaction was not quantified. To quantify the oligomerisation of the STIL CCD peptide, analytical ultracentrifugation (AUC) sedimentation velocity (SV) and sedimentation equilibrium (SE) experiments were performed (Figure 2A, Table 1 and Figures S4–S9, S18 and S19). AUC-SV experiments were conducted at several concentrations to explore how the oligomeric state changed with concentration in the low-to-high µM concentration range, and also to estimate the dissociation constants of the oligomerization of the STIL CCD peptide.
(§1) Analytical ultracentrifugation (AUC) experiments were carried out using a Beckman Optima XL-A or XL-I analytical ultracentrifuge. Measurements were performed at 20 °C unless otherwise stated, using an An-50 or An-60 rotor, in Sodium Phosphate Buffer pH 6.8 (25 mM Na2PO4 with addition of 137 mM NaCl, pH measured using Jenway (TM) 3510 benchtop and adjusted using 1M HCl and 1M NaOH solutions). The partial specific volume ( υ¯ ) for each peptide were calculated in Sedfit using values from Cohn and Edsall. The buffer densities and viscosities were calculated using UltraScan III [54].
Sedimentation velocity (SV) experiments were performed in EPON 2-channel centerpieces with quartz windows or aluminium centrepieces with sapphire windows. The samples were centrifuged at 50 or 60 krpm where stated, with absorbance measurements taken from a radial range of 5.7–7.3 cm. 120 scans were taken at 5 min intervals, the data were fit in Sedfit to a continuous c(s) distribution model at a 95% confidence level. The frictional ration and baseline were floated, and Time-invariant and Radial-invariant noise were fit. Initially data were fit between a range of Svedberg ratio of 0–15, but this was reduced to 0–3 for all data as there were no larger species. The residuals for each individual fit are shown in Figures S14–S17 as a bitmap in which the color indicates the difference between the model fit and the raw data over the radial range to which the data were fitted. The scans are in vertical chronological order.

STIL CCD peptide [2] = assay: AUC sedimentation equilibrium (SE), oligomeric state; assay type: physicochemical; conditions: absorbance 225 nm, 95% confidence limits; for AUC oligomeric state, SE: starting concentrations 5, 10, 20 µM, single ideal species fit, 20 °C, 25 mM phosphate pH 6.8; for mass, single species model, SE: starting concentrations 20, 10 and 5 µM
Description: (§2) To quantify the dissociation constants of the possible monomer-dimer and dimer-tetramer transitions, we used fluorescence-based binding measurements. Using micro-scale thermophoresis, fluorescence measurements were taken at increasing concentrations of WT CCD peptide in a fixed background of 5 µM fluorophore-labelled peptide. […] Fitting the fluorescence data to the Hill equation provided a dissociation constant of 8 ± 2 µM and a cooperativity of 1.2 ± 0.3 (Figure 2B, Table S4). We interpret this as being for the monomer-dimer transition, and that the fluorescence measurements are insensitive to the higher-order oligomerization. […] To probe the possible dimer-tetramer transition, we turned to AUC-SE measurements with starting concentrations of 5, 10, and 20 µM of STIL WT CCD peptide (Figures S18 and S19). The equilibrated data were fitted first to a model for a single ideal species, which provided a species 2.9 × monomer mass (Table 1). […] It should be noted that the dimerization constant of the WT peptide was measured in the presence of 5% DMSO and using a fluorophore-labeled peptide, while the tetramerization constant was measured without DMSO and unlabeled peptides. The addition of the label and the presence of the DMSO, which was unavoidable for making the labeled peptide soluble, may have affected the measured dimerization constant. Thus, we avoid directly comparing the values obtained by the two methods.
as §1
AUC sedimentation equilibrium (SE) experiments were run at multiple concentrations in a 6-Channel Epon charcoal-filled centerpiece. The samples were centrifuged at a range of speeds between 22–48 krpm. Absorbance scans across the radial range were recorded twice at each speed to ensure equilibration. Data were fitted to single, ideal species models or monomer-dimer equilibrium using Sedphat. In total, 95% confidence limits were obtained via Monte-Carlo analysis of the obtained fits. The quality of the fit was evaluated using the χ^2 parameter to observe which model best fit the data. Both fits of the data, where performed in Figures S18–S23 with their corresponding fit information.

STIL CCD peptide [3] = assay: AUC-SE dimer-tetramer model, tetramerization KD; assay type: binding; conditions: any experimental conditions; KDs could not be measured
Description: as §2
as §1, with “[54]. […]” for “[54].”

[4] = CD spectroscopy, helicity; assay type: physicochemical; conditions: CD at 50 µM, 5 °C, 25 mM sodium phosphate pH 6.8, 154 mM NaCl; for % Helicity: from MRE222 (100% = −38)
Description: (§3) Next, we used circular dichroism (CD) spectroscopy to probe the secondary structures of these WT CCD peptide assemblies. […] The spectra all had minima at 208 and 222 nm indicative of largely α-helical structures. From the high-concentration spectra we estimated ≈47% helix. To compare how the stabilities of these helical assemblies changed with concentration, we followed the changes in MRE222 with temperature over the same concentration range (Figure 2D, Table S1). Sigmoidal curves indicative of cooperative unfolding were apparent at all concentrations, indicating a cooperatively folded, oligomeric species. […] The temperature-dependent CD measurements were performed to determine the oligomerization-dependent thermal stability of the CCD. […] CD spectra of the peptides were recorded using a J-810 spectropolarimeter (Jasco) in a 0.1 cm and 1 cm quartz cuvette for far-UV CD spectroscopy, in a spectral range of 190 nm to 260 nm. The buffer used in the CD measurements was 25 mM sodium phosphate buffer pH = 6.8 with ionic strength of 154 mM (adjected by NaCl). The thermal melting of all STIL CCD peptides were measured as described. The graphs were fitted to Boltzmann equation in order to generate the Tm. Normalization to mean residue ellipticity was performed. The 100% helicity was calculated (with normalization to the length of the peptide and the condition of the measurement) as MRE × 10^−3 of −38 (Deg × cm^2 × dmol^−1 × res^−1).

[5] = assay type: physicochemical; conditions: for Tm: CD 222 nm, Boltzmann fit
Description: as §3

[6] = biological target: the molecule itself; assay: AUC; sedimentation velocity, 100 µM peptide, c(s) distribution; 20 °C, sodium phosphate pH 6.8 with NaCl
[7] = biological target: the molecule itself; assay: AUC; sedimentation velocity, 10 µM peptide, c(s) distribution; 20 °C, 25 mM sodium phosphate pH 6.8, ionic strength 154 mM (NaCl)
[8] = biological target: the molecule itself; assay: AUC; sedimentation equilibrium, starting concentrations 5, 10 and 20 µM, unlabelled peptide, no DMSO; 20 °C, sodium phosphate pH 6.8 with NaCl; fitted to a single ideal species (N) and, for the WT, to a dimer-tetramer model (apparent KD: tetramer to dimers)
[9] = 10 µM, AUC-SV, 60 krpm, 20 °C, pH 6.8
[10] = 10 µM, AUC-SV, 60 krpm, 20 °C, pH 6.8, 95% confidence level
[11] = 10 µM, AUC-SV, 60 krpm, 20 °C, absorbance, 95% confidence level
[12] = 100 µM, AUC-SV, 60 krpm, 20 °C, pH 6.8
[13] = 100 µM, AUC-SV, 60 krpm, 20 °C, pH 6.8, 95% confidence level
[14] = 100 µM, AUC-SV, 60 krpm, pH 6.8
[15] = 50 µM, 25 mM sodium phosphate pH 6.8, 154 mM NaCl
[16] = 10 µM in legend of Figure S17 (second fit), 60 krpm

| Molecule | Oligomeric State (at 10 µM) (STIL CCD peptide [1]; 10 µM) | sw (STIL CCD peptide [1]; [9]) | mw (solution mass from c(s) fit) (STIL CCD peptide [1]; [10]) | f/f0 (STIL CCD peptide [1]; 10 µM, AUC-SV, 60 krpm, pH 6.8) | sw(20,w) (STIL CCD peptide [1]; 10 µM, AUC-SV, 60 krpm, pH 6.8) | oligomeric state (average number of monomers in the oligomer) (STIL CCD peptide [1]; [11]) | sw (STIL CCD peptide [1]; [12]) | mw (solution mass from c(s) fit) (STIL CCD peptide [1]; [13]) | f/f0 (STIL CCD peptide [1]; [14]) | sw(20,w) (STIL CCD peptide [1]; [14]) | AUC oligomeric state, SE (STIL CCD peptide [2]) | mass, single species model, SE (STIL CCD peptide [2]) | dissociation of tetramer (in words) (STIL CCD peptide [3]) | MRE222 nm [4] | % Helicity [4] | Tm [5, 15] | stoichiometry N [6] | stoichiometry N [7] | stoichiometry N [8] | other results |
| --- | --- | --- | --- | --- | --- | --- | --- | --- | --- | --- | --- | --- | --- | --- | --- | --- | --- | --- | --- | --- |
| L SPDAYRF LTELDRQ LRLLQAQ IQRLLEA QSL-NH2 [STIL CCD718–749 Q729L, STIL CCD peptide with stabilising Q729L mutation; PDB 8oyl] | Tetramer | 1.484 S | 13538 Da | 1.250 | 1.531 S | 3.56 × monomer mass | 1.573 S | 15867 Da | 1.323 | 1.622 S | 3.47 ± 0.05 (5, 10, 20 µM) × monomer mass | 13373 ± 200 Da | could not be dissociated under any experimental conditions | −25.3 kdeg cm^2 dmol^−1 res^−1 | 67% | >95 °C |  |  |  | oligomeric state (average number of monomers in the oligomer) (STIL CCD peptide [1]; 100 µM, AUC-SV, 60 krpm, 20 °C, 95% confidence level, listed as STIL-Q729L): 4.1 × monomer mass |
| L SPDLYRF LTEQDRQ LRLLQAQ IQRLLEA QSL-NH2 [STIL CCD718–749 A722L, STIL CCD peptide with A722L mutation] | Tetramer | 1.384 S | 15133 Da | 1.458 | 1.428 S | 3.92 × monomer mass | 1.483 S | 15385 Da | 1.403 | 1.514 S | 3.51 ± 0.02 (5, 10, 20 µM) × monomer mass | 13541 ± 94 Da | could not be dissociated under any experimental conditions | −24.9 kdeg cm^2 dmol^−1 res^−1 | 66% | >70 °C |  |  |  | oligomeric state (average number of monomers in the oligomer) (STIL CCD peptide [1]; 100 µM, AUC-SV, 60 krpm, 20 °C, 95% confidence level, listed as STIL-A722L): 4.0 × monomer mass; Tm ([5]; 3 µM, sodium phosphate pH 6.8): 48.0±0.7 °C; Tm ([5]; 5 µM, sodium phosphate pH 6.8): 52.9±0.9 °C; Tm ([5]; 6 µM, sodium phosphate pH 6.8): 53.6±0.6 °C; Tm ([5]; 10 µM, sodium phosphate pH 6.8): 59.1±0.8 °C; Tm ([5]; 15 µM, sodium phosphate pH 6.8): 63±1 °C; Tm ([5]; 20 µM, sodium phosphate pH 6.8): 68±2 °C; Tm ([5]; 50 µM, 25 mM sodium phosphate pH 6.8, 154 mM NaCl, listed as A722L): over 70 °C; thermal denaturation (in words) ([5]; 50 µM, CD, 25 mM sodium phosphate pH 6.8, 154 mM NaCl): partially denatured; concentration dependence of Tm / thermal stability (in words) ([5]; pH 6.8): the thermal stability of A722L increased with peptide concentration |
| L SPDLYRF LTELDRQ LRLLQAQ IQRLLEA QSL-NH2 [STIL CCD718–749 A722L Q729L, STIL CCD peptide, double mutant of A722L and Q729L] | Tetramer | 1.452 S | 16229 Da | 1.411 | 1.499 S | 4.22 × monomer mass |  |  |  |  | 3.24 ± 0.03 (5, 10, 20 µM) × monomer mass | 12446 ± 129 Da | could not be dissociated under any experimental conditions | −30.7 kdeg cm^2 dmol^−1 res^−1 | 81% | >95 °C |  |  |  | f/f0 (STIL CCD peptide [1]; [16]): 1.390; sw (STIL CCD peptide [1]; [16]): 1.483 S; sw(20,w) (STIL CCD peptide [1]; [16]): 1.530 S; mw (solution mass from c(s) fit) (STIL CCD peptide [1]; 10 µM in legend of Figure S17 (second fit), 60 krpm, 95% confidence level): 16134 Da; oligomeric state (multiple of monomer mass) (STIL CCD peptide [1]; 10 µM in legend of Figure S17 (second fit), AUC-SV, 60 krpm, 95% confidence level): 4.2 × monomer mass; oligomeric state (average number of monomers in the oligomer) (STIL CCD peptide [1]; 10 µM, AUC-SV, 60 krpm, 20 °C, absorbance, 95% confidence level, listed as STIL-A722L-Q729L): 4.2 × monomer mass |
| B1 |  |  |  |  |  |  |  |  |  |  |  |  |  |  |  |  | 4 | 3.92 | 3.51 ± 0.02 |  |
| B2 |  |  |  |  |  |  |  |  |  |  |  |  |  |  |  |  | 4 | 3.56 | 3.47 ± 0.05 |  |
| B3 |  |  |  |  |  |  |  |  |  |  |  |  |  |  |  |  | 4 | 4.22 | 3.24 ± 0.03 |  |
